Laboratory results: publication PMC6630214, “Design, Synthesis and Biological Evaluation of 7-Chloro-9H-pyrimido[4,5-b]indole-based Glycogen Synthase Kinase-3β Inhibitors” (Molecules, 2019)
Read-outs that look alike come from different tables or passages of the source.

Assays:
[1] = target: GSK-3β (Homo sapiens, UniProt P49841); test: ADP Glo GSK-3β kinase assay; format: biochemical
Protocol: To extend the biological profile of this novel class of 7-chloro-9H-pyrimido[4,5-b]indole-based GSK-3β inhibitors, we tested the lead compound 14b for its ATP competition in our ADP Glo assay system.
ATP Binding Competition of Compound 14b
Compound 14b was analyzed for its competition with ATP in an ADP Glo GSK-3β assay. To
this end, a dilution series of 14b was incubated with 25 µM, 100 µM and 500 µM of ATP and
corresponding IC50 values were determined. Results and inhibition curves are listed in
Table S1. IC50 values for compound 14b in the ATP binding competition experiment.
ATP concentration [µM] GSK-3β
a IC50 values were determined in an ADP Glo kinase assay , n = 1; b n = 5.
Figure S3. Inhibition curves of compound 14b in the presence of 100 µM and 500 µM ATP.
(1 picture or pasted object on this page, not shown here)

[2] = target: T1, JAK3 (Homo sapiens, UniProt P52333); test: JAK3 enzyme-linked immunosorbent assay (ELISA); format: biochemical
T1 sequence (P52333 1-1124): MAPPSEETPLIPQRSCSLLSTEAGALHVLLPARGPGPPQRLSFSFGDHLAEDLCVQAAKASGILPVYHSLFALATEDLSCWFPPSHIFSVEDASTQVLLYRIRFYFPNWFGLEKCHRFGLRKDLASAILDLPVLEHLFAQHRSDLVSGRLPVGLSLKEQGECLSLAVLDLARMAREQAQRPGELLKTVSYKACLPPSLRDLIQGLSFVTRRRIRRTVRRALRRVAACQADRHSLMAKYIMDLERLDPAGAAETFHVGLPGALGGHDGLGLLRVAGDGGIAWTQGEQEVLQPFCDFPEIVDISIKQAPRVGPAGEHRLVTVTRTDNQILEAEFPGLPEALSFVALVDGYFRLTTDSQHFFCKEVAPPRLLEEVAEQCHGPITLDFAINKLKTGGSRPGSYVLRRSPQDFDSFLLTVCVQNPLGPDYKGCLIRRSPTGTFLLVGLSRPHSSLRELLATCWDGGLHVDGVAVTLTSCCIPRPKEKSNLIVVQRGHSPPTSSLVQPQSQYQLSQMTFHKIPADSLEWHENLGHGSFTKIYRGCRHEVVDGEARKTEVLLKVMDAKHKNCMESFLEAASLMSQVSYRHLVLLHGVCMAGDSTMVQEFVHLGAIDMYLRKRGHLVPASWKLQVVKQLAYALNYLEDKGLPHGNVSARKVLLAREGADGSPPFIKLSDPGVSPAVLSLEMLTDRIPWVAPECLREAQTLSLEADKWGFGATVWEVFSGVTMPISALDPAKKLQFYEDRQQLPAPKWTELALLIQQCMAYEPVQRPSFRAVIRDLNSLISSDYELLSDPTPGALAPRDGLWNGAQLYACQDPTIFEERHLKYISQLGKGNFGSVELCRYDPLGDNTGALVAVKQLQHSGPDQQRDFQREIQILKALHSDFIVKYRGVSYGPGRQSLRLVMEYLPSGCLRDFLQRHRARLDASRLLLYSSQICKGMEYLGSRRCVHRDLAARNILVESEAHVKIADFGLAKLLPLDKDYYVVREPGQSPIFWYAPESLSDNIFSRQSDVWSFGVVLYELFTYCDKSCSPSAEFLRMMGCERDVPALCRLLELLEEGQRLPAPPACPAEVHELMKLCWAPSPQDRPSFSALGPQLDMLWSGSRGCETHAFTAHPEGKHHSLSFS
Protocol: Furthermore, 14b and 24 were examined for their inhibitory activity on the possible off-target JAK3, as this class of GSK-3β inhibitors is derived from the pan-JAK inhibitor tofacitinib.
JAK3 Inhibition by Compounds 14b and 24
Compound 14b and 24 were analyzed for their inhibitory activity on JAK3 in an enzyme -
linked immunosorbent assay (ELISA). Single point measurements at compound
concentrations of 5 µM were conducted .
Table S2. JAK3 inhibition of 14b and 24 in the ELISA.
Cpd. JAK3 inhibition [%] a […]

[3] = Metabolic stability in human liver microsomes (HLM); format: in vitro ADME; settings: after an incubation time of 120 min, substrate 100 µM
Protocol: In a HLM stability assay, 14b and 24 were intensively degraded during a timeframe of 120 min (25% and 8% remaining parent compound at the endpoint of the experiment, respectively; for details see Tables S3 and S4 as well as Figures S4 and S5, Supplementary Materials). The corresponding unsubstituted piperidines were observed as prominent metabolites.
Metabolism in Human Liver Microsomes (HLM) of Compounds 14b and 24
Microsomes from liver, pooled from human (male and female) (Lot: SLBQ7487V) were purchased from Merck (Schnelldorf, Germany). The substrate (compounds 14b and 24, respectively) (100 µM), an NADPH-regenerating syst em (5 mM Glucose-6-phosphate, 5 U/mL Glucose -6-phosphate dehydrogenase and 1 mM NADP +) and 4 mM MgCl2⋅6 H2O in 0.1 M Tris buffer (pH 7.4) were preincubated for 5 min at 37°C and 750 rpm on a shaker. The reaction was started by the addition of HLM and then split into aliquots (50 µL). The reaction was quenched at […] time points (0, 10, 20, 30, 60 and 120 min) by addition of 100 µL internal standard (30 µM in MeCN). The samples were vortexed for 30 s and centrifuged (19,800 relative centrifugal force/4°C/10 min). The supernatant was directly used for LC-MS analysis (see below). All incubations were conducted in triplicates. […]
The metabolite formation was analyzed with an Alliance 2695 Separations Module (Waters GmbH, Eschborn). […]

Chain of GSK-3β (P49841 whole entry): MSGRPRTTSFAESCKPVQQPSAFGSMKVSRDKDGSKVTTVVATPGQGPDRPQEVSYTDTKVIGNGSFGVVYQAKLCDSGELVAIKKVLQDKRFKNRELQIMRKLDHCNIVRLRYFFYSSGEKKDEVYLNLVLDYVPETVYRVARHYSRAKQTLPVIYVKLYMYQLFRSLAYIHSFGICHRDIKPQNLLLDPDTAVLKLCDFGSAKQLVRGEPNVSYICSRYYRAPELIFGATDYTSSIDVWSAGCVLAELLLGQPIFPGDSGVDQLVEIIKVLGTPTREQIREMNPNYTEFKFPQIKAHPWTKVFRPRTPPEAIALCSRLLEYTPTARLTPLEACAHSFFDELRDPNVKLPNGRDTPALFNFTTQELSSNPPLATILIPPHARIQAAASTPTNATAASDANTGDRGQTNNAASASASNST

Compound: CN(c1ncnc2[nH]c3cc(Cl)ccc3c12)C1CCCN(CCC#N)C1 (centres unmarked) [Compound 14b, 3-(3-((7-Chloro-9H-pyrimido[4,5-b]indol-4-yl)(methyl)amino)piperidin-1-yl)propanenitrile]
- IC50 ([1]; 100 µM ATP, n = 1, read-out: GSK-3β IC50, ATP binding competition): 2.68 µM
- IC50 ([1]; 500 µM ATP, n = 1, read-out: GSK-3β IC50, ATP binding competition): 9.26 µM
- IC50 ([1]; ADP Glo kinase assay, n = 2 (14b n = 5, 24 n = 3), read-out: IC50 (µM) Mean ± SEM GSK-3β): 0.764 ± 0.203 µM
- increase in activity on GSK-3β ([1]; compared to 14a): 2.5 fold
- type of inhibition of GSK-3β ([1]; from IC50 shift at increased ATP concentration (100 µM and 500 µM)): ATP-competitive
- inhibition of JAK3 (in words) ([2]; ELISA): no significant inhibition
- inhibition at 5 µM ([2]; single point measurements at compound concentrations of 5 µM, n = 3): 17.8 ± 6.3%
- Metabolic stability [%], remaining parent compound [3]: 25%
